According to patent publication US6790855B2 (priority 2000, dated 2004):
Where a name gives a salt, the structure may show the parent alone.

Assays:
mice = assay: radiant heat tailflick assay after topical administration (tail immersed in DMSO drug solution); type: in vivo; conditions: for Opioid ED50 Value: opioid alone or opioid component of fixed-ratio combination; for response reached in dose-response curve: tested immediately; for response reached in dose-response curve / analgesic activity in words: FIG. 2; for analgesic activity in words: dose-response; for peak response: fixed low dose: morphine 1.5 mM, lidocaine 0.9 mM, alone or both together, FIG. 3a; for analgesic response: constant concentration, FIG. 1a
subject's finger = assay: radiant light heat source finger latency after topical gel application; type: in vivo, human; conditions: Lidocaine alone 0.125 mg/ml or morphine alone 0.25 mg/ml gel, FIG. 7
[1] = as an analgesic and as a respiratory depressant; cited from earlier work
[2] = topical, increasing concentrations, 2 minutes, FIG. 4
[3] = 2 minutes exposure, listed as free base of lidocaine

## CN1CC[C@]23CCCC[C@H]2[C@H]1Cc1ccc(O)cc13 [Levorphanol]
mice; [2]
  ED50: 5000 µM
  analgesic response in words: full analgesic responses
mice; topical, tailflick
  Opioid ED50 Value: 5000 µM

## CCN(CC)CC(=O)Nc1c(C)cccc1C [Lidocaine HCl]
mice; 2 minutes exposure, HCl
  response reached in dose-response curve: 50-60%
  analgesic activity in words: less effective

## CN1CC[C@]23c4c5ccc(O)c4O[C@H]2[C@@H](O)C=C[C@H]3[C@H]1C5 [Morphine]
mice; 2 minutes exposure
  analgesic activity in words: intermediate potency between the two forms of lidocaine
mice
  peak response: 20%
mice; morphine ED50, + lidocaine 0.45 mM vs alone
  Shift: 1.7
mice; morphine ED50, + lidocaine 0.9 mM vs alone
  Shift: 4.1
mice; morphine ED50, + lidocaine 1.8 mM vs alone
  Shift: 4.7
mice; topical morphine + lidocaine 0.45 mM
  ED50: 3600 µM
mice; topical morphine + lidocaine 0.9 mM
  ED50: 1500 µM
mice; topical morphine + lidocaine 1.8 mM
  ED50: 1300 µM
mice; topical, drug alone
  ED50: 6100 µM
mice; topical, tailflick
  Opioid ED50 Value: 6100 µM
subject's finger
  change in latency compared to baseline, in words: Neither morphine nor Lidocaine produced appreciable changes in latency

## CCN(CC)CC(=O)Nc1c(C)cccc1C [Lidocaine]
mice; [3]
  response reached in dose-response curve: 75%
  analgesic activity in words: biphasic dose-response curve
mice; 2 minutes exposure, time action curve over 30 minutes, FIG. 1b
  time of decrease to baseline levels: ≤ 20 min
mice; exposure 30 seconds
  analgesic response: 20%
mice; exposure 2 minutes
  analgesic response: 70%
mice
  peak response: 20%
mice; lidocaine ED50, + morphine 3.0 mM vs alone
  Shift: 3.1
mice; lidocaine ED50, + morphine 4.5 mM vs alone
  Shift: 3.6
mice; mouse, in vivo
  Shift: 2.5
mice; topical lidocaine + morphine 1.5 mM
  ED50: 1000 µM
mice; topical lidocaine + morphine 3.0 mM
  ED50: 800 µM
mice; topical lidocaine + morphine 4.5 mM
  ED50: 700 µM
mice; topical, drug alone
  ED50: 2500 µM
mice; topical, tailflick, lidocaine alone (initial portion of curve) or lidocaine component of fixed-ratio combination
  Lidocaine ED50 Value: 2500 µM
subject's finger
  change in latency compared to baseline, in words: Neither morphine nor Lidocaine produced appreciable changes in latency

## COc1ccc2c3c1O[C@H]1[C@@H](O)C=C[C@H]4[C@@H](C2)N(C)CC[C@@]341 [codeine]
[1]
  effectiveness orally relative to parenterally: approximately 60%
